Reference: ChEMBL document CHEMBL3638649, “Dihydroorotate dehydrogenase inhibitors” (2015)

Molecular target: Dihydroorotate dehydrogenase (quinone), mitochondrial (Homo sapiens, UniProt Q02127)
Test: Enzyme Assay: The DHODH activity assay is a coupled enzyme assay in which oxidation of DHO and subsequent reduction of ubiquinone are stoichiometrically equivalent to the reduction of DCIP ([…]). The reduction of DCIP is accompanied by a loss of absorbance at 610 nm.Reagents Used:L-Dihydroorotic acid, Sigma, D7128, 2,6-Dichloroindophenol sodium salt hydrate, sigma, D1878 Dimethyl sulfoxide (DMSO), spectroscopic grade purchased from Spectrochem, cat no. 0704209, B. no.--3183650 Decylubiquinone, Sigma, D7911Preparation of Solutions/Reagents:Buffer Preparation: 50 mM tris HCl, 150 mM KCl, and pH 8.0, 0.8% triton.L-Dihydroorotic acid stock solution of 20 mM in buffer2,6-Dichloroindophenol Sodium salt hydrate stock solution of 20 mM in bufferDecylubiquinone stock solution of 20 mM in bufferDMSO used as vehicleProcedure:5 µL of Dimethyl sulfoxide or a compound of formula I in DMSO solution was added to the wells of a 96 well plate. Compounds of formula I were measured at 10 µM.

Sequence of Dihydroorotate dehydrogenase (quinone), mitochondrial (Q02127 whole entry): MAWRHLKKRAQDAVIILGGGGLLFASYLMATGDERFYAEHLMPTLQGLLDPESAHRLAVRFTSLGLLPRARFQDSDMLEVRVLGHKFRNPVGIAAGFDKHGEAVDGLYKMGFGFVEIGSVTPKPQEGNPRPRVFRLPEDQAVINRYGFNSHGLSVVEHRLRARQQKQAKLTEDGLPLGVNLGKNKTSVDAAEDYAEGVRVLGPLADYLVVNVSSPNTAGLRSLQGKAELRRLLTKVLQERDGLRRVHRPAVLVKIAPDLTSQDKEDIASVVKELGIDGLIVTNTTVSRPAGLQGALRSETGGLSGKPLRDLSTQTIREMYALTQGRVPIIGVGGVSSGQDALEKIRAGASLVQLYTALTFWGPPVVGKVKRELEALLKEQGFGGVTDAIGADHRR

Compound: Cc1cc(C(=O)O)c2nc(C#Cc3ccccc3)[nH]c2c1
- IC50: 11.4 µM
